Data: patent publication US20250346569A1, “NEW DERIVATIVES FOR TREATING TRPM3 MEDIATED DISORDERS” (Katholieke Universiteit Leuven, priority 2022, published 2025)

These compounds were tested against T1, mouse TRPM3α2 (mTRPM3) ion channel (Mus musculus, UniProt J9SQF3) (assay: Monitoring the TRPM3 ion channel driven Ca2+ uptake (Fluo-4 AM assay)). Conditions: TRPM3 overexpressing flip-in HEK293 cells, channel stimulated with Pregnenolone sulfate (PS) 50 μM.
T1 construct: expressed in transfected cells; host or cells: flip-in HEK293
Format: cell-based
Summary of the method: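 Flp-In HEK293 cells overexpressing mTRPM3α2, loaded with Fluo-4 AM and added to wells holding compound plus 50 μM pregnenolone sulfate in Ca2+-containing Krebs buffer. Fluorescence (ex 485/em 535) read right after cell addition. Inhibition normalised to vehicle and positive-control inhibitor; IC50 derived.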

T1 sequence (J9SQF3 1-1709 isoform J9SQF3-12): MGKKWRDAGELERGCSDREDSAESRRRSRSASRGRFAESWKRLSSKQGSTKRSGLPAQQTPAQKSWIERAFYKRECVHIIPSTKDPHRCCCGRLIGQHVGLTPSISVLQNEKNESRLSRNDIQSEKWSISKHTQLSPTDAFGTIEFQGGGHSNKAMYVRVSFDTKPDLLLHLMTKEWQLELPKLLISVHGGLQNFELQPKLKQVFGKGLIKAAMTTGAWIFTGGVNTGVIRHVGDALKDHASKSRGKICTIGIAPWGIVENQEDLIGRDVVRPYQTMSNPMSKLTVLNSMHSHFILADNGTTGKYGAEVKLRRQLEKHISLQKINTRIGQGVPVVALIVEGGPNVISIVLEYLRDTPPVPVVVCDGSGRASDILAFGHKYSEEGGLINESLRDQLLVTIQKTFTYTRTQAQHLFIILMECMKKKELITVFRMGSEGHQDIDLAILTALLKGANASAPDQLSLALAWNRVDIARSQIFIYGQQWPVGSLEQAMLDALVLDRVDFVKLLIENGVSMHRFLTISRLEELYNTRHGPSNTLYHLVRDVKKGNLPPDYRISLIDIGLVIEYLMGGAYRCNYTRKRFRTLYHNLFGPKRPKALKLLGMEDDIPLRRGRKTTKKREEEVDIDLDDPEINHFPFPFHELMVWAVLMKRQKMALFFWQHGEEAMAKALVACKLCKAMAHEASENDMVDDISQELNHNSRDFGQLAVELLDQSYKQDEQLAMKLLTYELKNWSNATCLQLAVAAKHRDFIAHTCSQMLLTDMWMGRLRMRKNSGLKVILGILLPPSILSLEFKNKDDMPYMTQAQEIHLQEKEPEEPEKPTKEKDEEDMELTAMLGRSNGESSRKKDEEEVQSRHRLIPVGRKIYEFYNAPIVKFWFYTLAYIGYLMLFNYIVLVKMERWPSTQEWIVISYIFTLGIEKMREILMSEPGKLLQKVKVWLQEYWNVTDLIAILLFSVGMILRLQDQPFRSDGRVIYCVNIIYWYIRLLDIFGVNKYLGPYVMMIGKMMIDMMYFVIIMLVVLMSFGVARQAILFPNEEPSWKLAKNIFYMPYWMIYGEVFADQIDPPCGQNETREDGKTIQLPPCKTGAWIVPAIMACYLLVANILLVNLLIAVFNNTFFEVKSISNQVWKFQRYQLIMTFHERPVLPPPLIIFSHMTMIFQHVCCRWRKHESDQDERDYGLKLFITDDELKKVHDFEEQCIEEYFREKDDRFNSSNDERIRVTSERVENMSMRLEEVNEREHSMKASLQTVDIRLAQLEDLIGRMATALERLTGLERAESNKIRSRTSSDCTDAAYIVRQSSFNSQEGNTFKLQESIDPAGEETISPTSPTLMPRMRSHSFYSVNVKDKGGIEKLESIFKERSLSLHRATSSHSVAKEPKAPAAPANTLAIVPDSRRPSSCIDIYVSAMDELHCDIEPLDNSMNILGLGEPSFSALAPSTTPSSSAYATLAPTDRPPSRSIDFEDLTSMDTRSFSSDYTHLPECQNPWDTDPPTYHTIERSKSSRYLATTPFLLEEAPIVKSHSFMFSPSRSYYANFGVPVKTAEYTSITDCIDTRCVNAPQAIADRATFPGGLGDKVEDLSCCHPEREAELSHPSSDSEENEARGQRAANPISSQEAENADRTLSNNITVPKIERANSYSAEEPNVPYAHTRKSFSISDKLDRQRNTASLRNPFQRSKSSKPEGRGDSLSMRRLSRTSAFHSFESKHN

Compared with `Cc1sc2ccc(OCc3cccnc3C(F)(F)F)cc2c1C(=O)NC1(CO)CCOCC1` [Cpd 083, N-[4-(hydroxymethyl)oxan-4-yl]-2-methyl-5-{[2-(trifluoromethyl)pyridin-3-yl]methoxy}-1-benzothiophene-3-carboxamide], `Cc1sc2ccc(OCc3cccnc3O)cc2c1C(=O)NC1(CO)CCOCC1` [Cpd 084, N-[4-(hydroxymethyl)oxan-4-yl]-5-[(2-hydroxypyridin-3-yl)methoxy]-2-methyl-1-benzothiophene-3-carboxamide] is lower in IC50: 1000 to 20000 nM for the first, < 1000 nM for the second.

`Cc1sc2ccc(OCc3ccccc3F)cc2c1C(=O)NC1(CO)COC1` [Cpd 085, 5-[(2-fluorophenyl)methoxy]-N-[3-(hydroxymethyl)oxetan-3-yl]-2-methyl-1-benzothiophene-3-carboxamide] and `Cc1sc2ccc(OCc3ccccc3F)cc2c1C(=O)NC1(C(N)=O)COC1` [Cpd 087, 3-{5-[(2-fluorophenyl)methoxy]-2-methyl-1-benzothiophene-3-amido}oxetane-3-carboxamide] cannot be ordered by IC50: < 1000 nM for the first, < 1000 nM for the second.

`Cc1sc2ccc(OCc3ccccn3)cc2c1C(=O)NC1(CO)COC1` [Cpd 086, N-[3-(hydroxymethyl)oxetan-3-yl]-2-methyl-5-[(pyridin-2-yl)methoxy]-1-benzothiophene-3-carboxamide] and `Cc1sc2ccc(OCc3ccccn3)cc2c1C(=O)NC1(C(N)=O)COC1` [Cpd 088, 3-{2-methyl-5-[(pyridin-2-yl)methoxy]-1-benzothiophene-3-amido}oxetane-3-carboxamide] cannot be ordered by IC50: < 1000 nM for the first, < 1000 nM for the second.

First: Cc1sc2ccc(OCc3ccccc3)cc2c1C(=O)NC1CC(F)(F)C1 [Cpd 089, 5-(benzyloxy)-N-(3,3-difluorocyclobutyl)-2-methyl-1-benzothiophene-3-carboxamide]
Second: Cc1sc2ccc(OCc3ccccc3)cc2c1C(=O)NC1CN(C)CC1(F)F (centres unmarked) [Cpd 120, 5-(benzyloxy)-N-(4,4-difluoro-1-methylpyrrolidin-3-yl)-2-methyl-1-benzothiophene-3-carboxamide]
The IC50 of the first is higher: > 20000 nM for the first, < 1000 nM for the second.

Compared with `Cc1sc2ccc(OCc3cccnc3C(F)(F)F)cc2c1C(=O)NC1CC(F)(F)C1` [Cpd 090, N-(3,3-difluorocyclobutyl)-2-methyl-5-{[2-(trifluoromethyl)pyridin-3-yl]methoxy}-1-benzothiophene-3-carboxamide], `Cc1sc2ccc(OCc3cccnc3C(F)(F)F)cc2c1C(=O)NC1CN(C)CC1(F)F` (centres unmarked) [Cpd 121, N-(4,4-difluoro-1-methylpyrrolidin-3-yl)-2-methyl-5-{[2-(trifluoromethyl)pyridin-3-yl]methoxy}-1-benzothiophene-3-carboxamide] is lower in IC50: > 20000 nM for the first, < 1000 nM for the second.

`Cc1sc2ccc(OCc3ccccc3)cc2c1C(=O)Nc1ccn(C)n1` [Cpd 091, 5-(benzyloxy)-2-methyl-N-(1-methyl-1H-pyrazol-3-yl)-1-benzothiophene-3-carboxamide] and `Cc1sc2ccc(OCc3ccccc3)cc2c1C(=O)O` [Cpd 108, 5-(benzyloxy)-2-methyl-1-benzothiophene-3-carboxylic acid] cannot be ordered by IC50: < 1000 nM for the first, < 1000 nM for the second.

`Cc1sc2ccc(OCc3cccnc3C(F)(F)F)cc2c1C(=O)Nc1ccn(C)n1` [Cpd 092, 2-methyl-N-(1-methyl-1H-pyrazol-3-yl)-5-{[2-(trifluoromethyl)pyridin-3-yl]methoxy}-1-benzothiophene-3-carboxamide] and `Cc1sc2ccc(OCc3cccnc3C(F)(F)F)cc2c1C(=O)O` [Cpd 109, 2-methyl-5-{[2-(trifluoromethyl)pyridin-3-yl]methoxy}-1-benzothiophene-3-carboxylic acid] cannot be ordered by IC50: < 1000 nM for the first, < 1000 nM for the second.

`Cc1sc2ccc(OCc3ccccc3F)cc2c1C(=O)NC1CCNC1=O` (centres unmarked) [Cpd 093, 5-[(2-fluorophenyl)methoxy]-2-methyl-N-(2-oxopyrrolidin-3-yl)-1-benzothiophene-3-carboxamide] and `Cc1sc2ccc(OCc3cccnc3C(F)(F)F)cc2c1C(=O)NC1CCNC1=O` (centres unmarked) [Cpd 094, 2-methyl-N-(2-oxopyrrolidin-3-yl)-5-{[2-(trifluoromethyl)pyridin-3-yl]methoxy}-1-benzothiophene-3-carboxamide] cannot be ordered by IC50: < 1000 nM for the first, < 1000 nM for the second.

Compared with `Cc1sc2ccc(OCc3ccccc3)cc2c1C(=O)NC1CCOC1` (centres unmarked) [Cpd 096, 5-(benzyloxy)-2-methyl-N-(oxolan-3-yl)-1-benzothiophene-3-carboxamide], `Cc1sc2ccc(OCc3ccccc3)cc2c1C(=O)NCCN1CCOC1=O` [Cpd 106, 5-(benzyloxy)-2-methyl-N-[2-(2-oxo-1,3-oxazolidin-3-yl)ethyl]-1-benzothiophene-3-carboxamide] is higher in IC50: < 1000 nM for the first, 1000 to 20000 nM for the second.

Compared with `Cc1sc2ccc(OCc3cccnc3C(F)(F)F)cc2c1C(=O)NC1CCOC1` (centres unmarked) [Cpd 097, 2-methyl-N-(oxolan-3-yl)-5-{[2-(trifluoromethyl)pyridin-3-yl]methoxy}-1-benzothiophene-3-carboxamide], `Cc1sc2ccc(OCc3cccnc3C(F)(F)F)cc2c1C(=O)NCCN1CCOC1=O` [Cpd 107, 2-methyl-N-[2-(2-oxo-1,3-oxazolidin-3-yl)ethyl]-5-{[2-(trifluoromethyl)pyridin-3-yl]methoxy}-1-benzothiophene-3-carboxamide] is higher in IC50: < 1000 nM for the first, 1000 to 20000 nM for the second.

`Cc1sc2ccc(OCc3ccccc3)cc2c1C(=O)NCC(C)(C)N1CCOCC1` [Cpd 098, 5-(benzyloxy)-2-methyl-N-[2-methyl-2-(morpholin-4-yl)propyl]-1-benzothiophene-3-carboxamide] and `Cc1sc2ccc(OCc3ccccc3)cc2c1C(=O)NCC(C)(C)O` [Cpd 100, 5-(benzyloxy)-N-(2-hydroxy-2-methylpropyl)-2-methyl-1-benzothiophene-3-carboxamide] fall in the same range of IC50: 1000 to 20000 nM for the first, 1000 to 20000 nM for the second.

First: Cc1sc2ccc(OCc3cccnc3C(F)(F)F)cc2c1C(=O)NCC(C)(C)N1CCOCC1 [Cpd 099, 2-methyl-N-[2-methyl-2-(morpholin-4-yl)propyl]-5-{[2-(trifluoromethyl)pyridin-3-yl]methoxy}-1-benzothiophene-3-carboxamide]
Second: Cc1sc2ccc(OCc3cccnc3C(F)(F)F)cc2c1C(=O)NCC(C)(C)O [Cpd 101, N-(2-hydroxy-2-methylpropyl)-2-methyl-5-{[2-(trifluoromethyl)pyridin-3-yl]methoxy}-1-benzothiophene-3-carboxamide]
The IC50 of the first is higher: 1000 to 20000 nM for the first, < 1000 nM for the second. The second is the more potent here.

First: Cc1sc2ccc(OCc3ccccc3)cc2c1C(=O)NCC1CCC(=O)N1 (centres unmarked) [Cpd 102, 5-(benzyloxy)-2-methyl-N-[(5-oxopyrrolidin-2-yl)methyl]-1-benzothiophene-3-carboxamide]
Second: Cc1sc2ccc(OCc3cccnc3C(F)(F)F)cc2c1C(=O)NCC1CCC(=O)N1 (centres unmarked) [Cpd 103, 2-methyl-N-[(5-oxopyrrolidin-2-yl)methyl]-5-{[2-(trifluoromethyl)pyridin-3-yl]methoxy}-1-benzothiophene-3-carboxamide]
The IC50 of the first is higher: 1000 to 20000 nM for the first, < 1000 nM for the second. The second is the more potent here.

Going from `Cc1sc2ccc(OCc3ccccc3)cc2c1C(=O)NCc1cccc(O)n1` [Cpd 104, 5-(benzyloxy)-N-[(6-hydroxypyridin-2-yl)methyl]-2-methyl-1-benzothiophene-3-carboxamide] to `Cc1sc2ccc(OCc3cccnc3C(F)(F)F)cc2c1C(=O)NCc1cccc(O)n1` [Cpd 105, N-[(6-hydroxypyridin-2-yl)methyl]-2-methyl-5-{[2-(trifluoromethyl)pyridin-3-yl]methoxy}-1-benzothiophene-3-carboxamide], the IC50 falls from > 20000 nM to < 1000 nM. The second is the more potent here.

First: CCOC(=O)c1c(C)sc2ccc(OC)cc12 [Cpd 110, ethyl 5-methoxy-2-methyl-1-benzothiophene-3-carboxylate]
Second: Cc1ncsc1COc1ccc2sc(C)c(C(=O)NCCN(C)C)c2c1 [Cpd 118, N-[2-(dimethylamino)ethyl]-2-methyl-5-[(4-methyl-1,3-thiazol-5-yl)methoxy]-1-benzothiophene-3-carboxamide]
The IC50 of the first is higher: > 20000 nM for the first, < 1000 nM for the second.

Compared with `Cc1sc2ccc(OCc3ccccc3)cc2c1C(=O)NCC1(N(C)C)CCCC1` [Cpd 111, 5-(benzyloxy)-N-{[1-(dimethylamino)cyclopentyl]methyl}-2-methyl-1-benzothiophene-3-carboxamide], `CN(C)C1(CNC(=O)c2c(C(F)F)sc3ccc(OCc4ccccc4)cc23)CCCC1` [Cpd 112, 5-(benzyloxy)-2-(difluoromethyl)-N-{[1-(dimethylamino)cyclopentyl]methyl}-1-benzothiophene-3-carboxamide] is higher in IC50: < 1000 nM for the first, 1000 to 20000 nM for the second. The first is the more potent here.

`Cc1sc2ccc(OCc3cccnc3C(F)(F)F)cc2c1C(=O)NCC1(N(C)C)CCCC1` [Cpd 113, N-{[1-(dimethylamino)cyclopentyl]methyl}-2-methyl-5-{[2-(trifluoromethyl)pyridin-3-yl]methoxy}-1-benzothiophene-3-carboxamide] and `Cc1sc2ccc(OCc3cccnc3C(F)(F)F)cc2c1C(=O)NCCN(C)C` [Cpd 117, N-[2-(dimethylamino)ethyl]-2-methyl-5-{[2-(trifluoromethyl)pyridin-3-yl]methoxy}-1-benzothiophene-3-carboxamide] cannot be ordered by IC50: < 1000 nM for the first, < 1000 nM for the second.

First: Cc1ncsc1COc1ccc2sc(C)c(C(=O)NCC3(N(C)C)CCCC3)c2c1 [Cpd 114, N-{[1-(dimethylamino)cyclopentyl]methyl}-2-methyl-5-[(4-methyl-1,3-thiazol-5-yl)methoxy]-1-benzothiophene-3-carboxamide]
Second: Cc1sc2ccc(OCc3ccccc3)cc2c1C(=O)NCCN(C)C [Cpd 115, 5-(benzyloxy)-N-[2-(dimethylamino)ethyl]-2-methyl-1-benzothiophene-3-carboxamide]
The IC50 of the first is lower: < 1000 nM for the first, 1000 to 20000 nM for the second. The first is the more potent here.

`CN(C)CCNC(=O)c1c(C(F)F)sc2ccc(OCc3ccccc3)cc12` [Cpd 116, 5-(benzyloxy)-2-(difluoromethyl)-N-[2-(dimethylamino)ethyl]-1-benzothiophene-3-carboxamide] and `CN1CC(NC(=O)c2c(C(F)F)sc3ccc(OCc4ccccc4)cc23)C(F)(F)C1` (centres unmarked) [Cpd 119, 5-(benzyloxy)-N-(4,4-difluoro-1-methylpyrrolidin-3-yl)-2-(difluoromethyl)-1-benzothiophene-3-carboxamide] fall in the same range of IC50: 1000 to 20000 nM for the first, 1000 to 20000 nM for the second.
